# Experimental data published in PMC8439242, “Pharmacokinetic study on the interaction between pachymic acid and bavachin and its potential mechanism” (Pharmaceutical Biology, 2021).
# Test system: T1, CYP2C9
# T1 construct: gene Cyp2c11; 'CYP2C9' is the human name, rat has no CYP2C9, rat Cyp2c forms turn over the diclofenac probe
# Experiment: diclofenac probe turnover in rat liver microsomes, LC-MS/MS
# Assay type: biochemical
# Settings: 50 μM diclofenac; 0.5 mg/mL microsomal protein; 30 min incubation; 0-100 μM inhibitor
smiles,measurement,value
C=C(CC[C@@H](C(=O)O)[C@H]1[C@H](O)C[C@@]2(C)C3=C(CC[C@]12C)[C@@]1(C)CC[C@H](OC(C)=O)C(C)(C)[C@@H]1CC3)C(C)C [pachymic acid],IC50,21.2 µM
